These results are taken from publication PMC10650415, “Synthesis of Tetracyclic Spirooxindolepyrrolidine-Engrafted Hydantoin Scaffolds: Crystallographic Analysis, Molecular Docking Studies and Evaluation of Their Antimicrobial, Anti-Inflammatory and Analgesic Activities” (Molecules, 2023).

Data set [1] has as its target T1, Lipoxygenase-5 (LOX-5) enzyme (Homo sapiens, UniProt P09917).
T1 construct: purchased sigma 437996-500U
T1 sequence (P09917 1-674): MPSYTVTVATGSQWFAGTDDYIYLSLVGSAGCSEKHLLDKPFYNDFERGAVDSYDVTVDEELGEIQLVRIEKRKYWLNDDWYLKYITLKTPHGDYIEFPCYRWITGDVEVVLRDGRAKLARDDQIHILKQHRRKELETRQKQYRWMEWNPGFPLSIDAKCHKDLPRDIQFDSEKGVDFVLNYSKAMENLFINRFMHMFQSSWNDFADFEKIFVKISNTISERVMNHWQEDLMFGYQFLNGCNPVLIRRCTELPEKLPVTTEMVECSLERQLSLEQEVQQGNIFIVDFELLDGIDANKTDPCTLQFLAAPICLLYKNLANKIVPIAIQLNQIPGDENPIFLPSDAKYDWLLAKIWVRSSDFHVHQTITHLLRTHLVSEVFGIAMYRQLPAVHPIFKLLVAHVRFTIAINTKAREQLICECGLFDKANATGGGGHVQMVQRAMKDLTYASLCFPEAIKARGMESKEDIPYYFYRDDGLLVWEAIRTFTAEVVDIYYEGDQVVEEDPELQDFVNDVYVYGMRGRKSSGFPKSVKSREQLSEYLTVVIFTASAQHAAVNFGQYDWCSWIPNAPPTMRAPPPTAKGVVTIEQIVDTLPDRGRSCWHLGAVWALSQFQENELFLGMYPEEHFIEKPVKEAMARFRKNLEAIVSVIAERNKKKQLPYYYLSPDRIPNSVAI
As to the kind of experiment: In vitro lipoxygenase (LOX-5) inhibitory assay. Format: biochemical. The conditions noted are these: mean ± SEM, n = 5; read-out: IC50 (LOX-5 inhibition) (converted). The procedure: Lipoxygenases are a family of monomeric proteins that catalyze oxidation of polyunsaturated fatty acids (PUFA) (linoleic, linolenic and arachidonic acid) to produce hydroperoxides. Fractions’ anti-LOX activity was also measured as inhibition of linoleic acid’s peroxidation to hydroperoxylinoleic acid.
To evaluate the prospects of the newly synthesized spirooxindoles as promising drug candidates, we first studied their inhibitory potency against the Lipoxygenase-5 (LOX-5) enzyme.

Data set [2] deals with Micrococcus luteus NCIMB 8166. The data set can be described thus: MIC, in vitro micro diffusion method. The conditions noted are these: NCIMB8166, M. luteus NCIMB 8166. Format: cell-based. The text has this: (§1) In this part, the spiropyrrolidines 4a–m were selected to be screening for their antimicrobial activities, using in vitro micro diffusion method, against multiple bacterial strains (Staphylocoocus aureus ATCC 25923, Escherichia coli ATCC 25922, Pseudomonas aeruginosa ATCC 27950, Micrococcus luteus NCIMB 8166), and two pathogenic reference yeasts namely Candida albicans ATCC 90028 and Candida kreusei ATCC 6258.

Data set [3] concerns Escherichia coli ATCC 25922. The data set can be described thus: MIC, in vitro micro diffusion method. It counts as cell-based. The conditions noted are these: ATCC25922, E. coli ATCC 25922.
The subject of another data set is S. aureus ATCC 25923. The data set can be described thus: MBC by the agar method. The conditions noted are these: Staphylococcus aureus, ATCC25923.
A further data set deals with M. luteus NCIMB 8166. As to the kind of experiment: MBC by the agar method. The conditions noted are these: for MBC/MIC ratio: M. luteus, ≤ 4 bactericidal, >4 bacteriostatic; for MBC: Micrococcus luteus, NCIMB8166.
The subject of the next data set is E. coli ATCC 25922. As to the kind of experiment: MBC by the agar method.
For another data set, the system named is P. aeruginosa ATCC 27950. As to the kind of experiment: MBC by the agar method. The conditions noted are these: Pseudomonas aeruginosa, ATCC27950.
In a further data set the test system is C. albicans ATCC 90028. As to the kind of experiment: MFC by the agar method. The conditions noted are these: for MFC: Candida albicans, ATCC90028; for MFC/MIC ratio: C. Albicans, ≤ 4 fungicidal, >4 fungistatic.
Another data set deals with C. kreusei ATCC 6258. The data set can be described thus: MFC by the agar method. The note with it: for MFC: Pichia kudriavzevii, ATCC6258; for MFC/MIC ratio: C. Krusei, ≤ 4 fungicidal, >4 fungistatic.
Data set [4] relates to Candida albicans ATCC 90028. The data set can be described thus: MIC, in vitro micro diffusion method. It counts as cell-based. The conditions noted are these: ATCC90028, C. albicans ATCC 90028.
Text: as §1

Data set [5] has as its system Candida kreusei ATCC 6258. As to the kind of experiment: MIC, in vitro micro diffusion method. It counts as cell-based. The note with it: C. krusei ATCC 6258.
Text: as §1

Data set [6] concerns Staphylocoocus aureus ATCC 25923. As to the kind of experiment: MIC, in vitro micro diffusion method. The conditions noted are these: Staphylococcus aureus, ATCC25923; S. aureus ATCC 25923. Format: cell-based.
Text: as §1

Details of data set [7]: method as in doi:10.1002/slct.201901228. The conditions noted are these: read-out: IC50 (anti-inflammatory efficacy); cited from earlier work.
Where [8] appears, read: Escherichia coli, ATCC25922, E. coli ATCC 25922.

In brackets after ≈: the same amount, converted by molar mass.

Experimental for C. albicans ATCC 90028: (§2) To further determine the killing efficiency of the synthesized spiropyrrolidines against selected strains, the minimum bactericidal concentration (MBC) and the minimum fungicidal concentration (MFC) were assessed by the agar method [54].
Experimental for C. kreusei ATCC 6258: as §2
Experimental for E. coli ATCC 25922: as §2
Experimental for M. luteus NCIMB 8166: as §2
Experimental for P. aeruginosa ATCC 27950: as §2
Experimental for S. aureus ATCC 25923: as §2

Usually IC50 stands for the concentration that inhibits the measured activity by half. As a reminder, the MIC is the lowest concentration that inhibits growth of the organism. A higher MIC goes with weaker potency. The term melting point denotes the temperature of the solid-liquid transition. For orientation: MBC means the lowest tested concentration that kills the bacteria rather than only halting them. In turn, `COc1ccc([C@H]2[C@H](c3ccccc3)N[C@@]3(C(=O)Nc4ccc(Cl)cc43)[C@@]23NC(=O)NC3=O)cc1` (racemic) [4c] showed a melting point of 211 °C. In addition, the IC50 in [1] is 4.42 mM. Besides, the minimum inhibitory concentration (MIC) in [2] was determined as 93.8 µg/mL (≈ 192 µM). The minimal inhibitory concentration (MIC) in data set [3] was 188 µg/mL (≈ 383 µM). In the data set with S. aureus ATCC 25923, this compound yielded a minimum bactericidal concentration (MBC) of 188 µg/mL (≈ 383 µM). Also, in the data set on M. luteus NCIMB 8166, the MBC/MIC ratio is reported as 8 and the MBC turned out to be 750 µg/mL (≈ 1530 µM). The compound further returned a minimal bactericidal concentration (MBC) in the data set on E. coli ATCC 25922 (setting [8]) of 188 µg/mL (≈ 383 µM). This compound registered a minimum bactericidal concentration (MBC) in the data set with P. aeruginosa ATCC 27950 of 93.8 µg/mL (≈ 192 µM). The MFC in the data set with C. albicans ATCC 90028 came to 46.9 µg/mL (≈ 95.9 µM). For the same compound, in the data set on C. kreusei ATCC 6258, the MFC was above 1500 µg/mL.
On to `O=C1NC(=O)[C@]2(N1)[C@@H](c1ccc(Cl)cc1)[C@H](c1ccccc1)N[C@@]21C(=O)Nc2ccccc21` (racemic) [4e], for which the melting point stood at 235 °C. Further, in data set [1], the 50% inhibitory concentration (IC50) is 3.86 mM. The compound also returned an MIC in data set [4] of 23.4 µg/mL (≈ 51.1 µM). Moreover, in data set [5], the minimal inhibitory concentration (MIC) worked out at 46.9 µg/mL (≈ 102 µM). The compound also had an MIC in data set [6] of 46.9 µg/mL (≈ 102 µM). Moreover, the MBC against S. aureus ATCC 25923 amounted to 93.8 µg/mL (≈ 204 µM). Besides, the MBC against M. luteus NCIMB 8166 was above 1500 µg/mL. This compound yielded an MBC in the data set on E. coli ATCC 25922 (setting [8]) of 750 µg/mL (≈ 1630 µM). In the data set with P. aeruginosa ATCC 27950, this compound yielded an MBC of 188 µg/mL (≈ 409 µM). In the data set with C. albicans ATCC 90028, the MFC/MIC ratio is on record as at most 4 and the MFC came to 23.4 µg/mL (≈ 51.1 µM). Besides, in the data set on C. kreusei ATCC 6258, the MFC/MIC ratio was at most 4 and the MFC was found to be 46.9 µg/mL (≈ 102 µM).
The compound `O=C1NC(=O)[C@]2(N1)[C@@H](c1ccc(Br)cc1)[C@H](c1ccccc1)N[C@@]21C(=O)N(Cc2ccccc2)c2ccccc21` (racemic) [4g] showed a melting point of 223 °C. Further, the IC50 in [1] is 8.36 mM. For the same compound, the lowest concentration to inhibit growth in data set [2] (MIC) was 93.8 µg/mL (≈ 158 µM). In data set [6], this compound had a minimal inhibitory concentration (MIC) of 23.3 µg/mL (≈ 39.3 µM). Moreover, in the data set on S. aureus ATCC 25923, the minimal bactericidal concentration (MBC) was 46.9 µg/mL (≈ 79 µM). For the same compound, in the data set on M. luteus NCIMB 8166, the MBC/MIC ratio is 8 and the minimum bactericidal concentration (MBC) is above 1500 µg/mL. This compound displayed a minimal bactericidal concentration (MBC) in the data set on E. coli ATCC 25922 (E. coli ATCC 25922) of 375 µg/mL (≈ 632 µM). In the data set with E. coli ATCC 25922 (setting [8]), this compound showed a minimal bactericidal concentration (MBC) of 188 to 374 µg/mL (≈ 316 to 630 µM). In the data set on P. aeruginosa ATCC 27950, the MBC was 188 µg/mL (≈ 316 µM). Also, in the data set on C. albicans ATCC 90028, the MFC/MIC ratio is at most 4 and the MFC came to 93.8 µg/mL (≈ 158 µM). Also, in the data set on C. kreusei ATCC 6258, the MFC/MIC ratio is on record as at most 4 and the MFC turned out to be 93.8 µg/mL (≈ 158 µM).
`O=C1NC(=O)[C@]2(N1)[C@@H](c1ccccc1O)[C@H](c1ccccc1)N[C@@]21C(=O)Nc2ccc(Cl)cc21` (stereo in doubt) [4m]: the melting point was found to be 223 °C. In addition, the concentration for half-maximal inhibition (IC50) in data set [1] was 2.99 mM. 93.8 µg/mL (≈ 197 µM) was the least that counted as inhibitory in [2] (MIC). This compound also showed a minimal inhibitory concentration (MIC) in data set [3] of 188 µg/mL (≈ 395 µM). This compound had a minimum bactericidal concentration (MBC) in the data set on S. aureus ATCC 25923 of 93.8 µg/mL (≈ 197 µM). Moreover, in the data set on M. luteus NCIMB 8166, the MBC is 188 µg/mL (≈ 395 µM). In the data set with E. coli ATCC 25922 (E. coli ATCC 25922), this compound had a minimal bactericidal concentration (MBC) of 375 µg/mL (≈ 790 µM). Further, in the data set on E. coli ATCC 25922 (setting [8]), the MBC fell in the range of 188 to 374 µg/mL (≈ 395 to 788 µM). In the data set with P. aeruginosa ATCC 27950, this compound gave an MBC of 188 µg/mL (≈ 395 µM). Besides, in the data set with C. albicans ATCC 90028, the MFC/MIC ratio is recorded as at most 4 and the MFC was found to be 93.8 µg/mL (≈ 197 µM). In the data set on C. kreusei ATCC 6258, the MFC/MIC ratio was at most 4 and the MFC worked out at 93.8 µg/mL (≈ 197 µM).
Regarding `C[C@@H]1[C@H](O)[C@@H](C)/C=C/C=C/C=C/C=C/C=C/C=C/C=C/[C@H](O[C@@H]2O[C@H](C)[C@@H](O)[C@H](N)[C@@H]2O)C[C@@H]2O[C@](O)(C[C@@H](O)C[C@@H](O)[C@H](O)CC[C@@H](O)C[C@@H](O)CC(=O)O[C@H]1C)C[C@H](O)[C@H]2C(=O)O` [Amphotericin B, reference compound], in data set [5], the MIC was 62.5 µg/mL (≈ 67.6 µM). Also, the values for the MFC in the data set on C. albicans ATCC 90028 and with C. kreusei ATCC 6258 were 500 µg/mL (≈ 541 µM) and 62.5 µg/mL (≈ 67.6 µM), respectively.
As for `O=C1/C(=C/c2cccc(F)c2)CCC[C@@]12[C@H](c1cccc(F)c1)[C@@H]1CSCN1[C@]21C(=O)Nc2ccccc21` [IVc], the IC50 in data set [7] is 0.0024 ± 0.0013 mM.
For `CC(C)Cc1ccc(C(C)C(=O)O)cc1` (centres unmarked) [ibuprofen], in data set [7], the IC50 was 0.0112 ± 0.0019 mM.
